Data from ChEMBL document CHEMBL1201862, “PubChem BioAssay data set” (2004).
The source made the active and inactive calls.

Columns and labels:
[1] = target: Glyceraldehyde-3-phosphate dehydrogenase (Homo sapiens, UniProt P04406)
[2] = target: Alkaline phosphatase, placental type (Homo sapiens, UniProt P05187); assay: PLAP enzyme inhibitors, confirmation, biochemical, luminescence (AID 1512); format: functional
[3] = target: T1, Alkaline phosphatase, tissue-nonspecific isozyme (Homo sapiens, UniProt P05186); assay: human TNAP enzyme inhibitors, SAR follow-up, biochemical, luminescent, dose response (AID 1056)
T1 sequence (P05186 whole entry): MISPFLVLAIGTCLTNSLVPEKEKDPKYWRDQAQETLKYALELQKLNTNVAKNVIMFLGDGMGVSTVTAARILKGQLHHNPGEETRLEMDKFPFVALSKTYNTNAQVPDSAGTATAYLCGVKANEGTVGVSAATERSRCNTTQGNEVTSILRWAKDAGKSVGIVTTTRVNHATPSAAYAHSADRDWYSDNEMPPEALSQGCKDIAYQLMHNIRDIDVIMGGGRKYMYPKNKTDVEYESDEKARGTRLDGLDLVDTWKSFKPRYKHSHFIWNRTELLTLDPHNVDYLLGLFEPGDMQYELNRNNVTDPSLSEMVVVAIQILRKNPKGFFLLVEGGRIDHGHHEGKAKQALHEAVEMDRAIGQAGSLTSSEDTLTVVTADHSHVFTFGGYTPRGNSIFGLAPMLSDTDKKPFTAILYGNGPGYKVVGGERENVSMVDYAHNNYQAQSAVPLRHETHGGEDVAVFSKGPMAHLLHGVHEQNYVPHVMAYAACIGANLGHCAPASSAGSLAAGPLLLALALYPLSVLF

[4] = target: Trypsin (Sus scrofa, UniProt P00761); assay: porcine trypsin inhibitors, dose response, selectivity assay for Rce1 protease inhibitor project, biochemical, quenched peptide fluorescence, cherry-pick (AID 488789)
[5] = target: CAAX prenyl protease 2 (Saccharomyces cerevisiae S288c, UniProt Q03530); format: biochemical
[6] = target: Eukaryotic translation initiation factor 4E (Mus musculus, UniProt P63073); assay: eIF4E–eIF4G protein interaction inhibitors, dose response, biochemical, TR-FRET (AID 855); format: functional;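 note: potency for disrupting eIF4E binding to eIF4GI seen as loss of FRET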
[7] = insulin promoter down-regulators in MIN6 cells, imaging, high-content screening, mouse beta cells (AID 1628); format: functional
[8] = cytotoxicity in MIN6 insulinoma cells, dose response, cytotoxicity control, cell-based, mouse insulinoma (AID 2122); format: functional;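 note: confirmatory high-throughput counterscreen run to flag cytotoxic compounds; mouse MIN-6 beta cells carrying an insulin promoter eGFP reporter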
[9] = inhibitors of intracellular T. cruzi replication, confirmation, NIH3T3 host cells, beta-gal luminescence (AID 2044); format: functional, cell-based;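 note: intracellular parasites grown in NIH/3T3 mouse fibroblasts as host cells; luminescent beta-galactosidase reporter signal from transgenic T. cruzi replicating inside host cells; inhibitors lower the luminescence signal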
[10] = cytotoxicity toward NIH3T3 fibroblasts, dose response, counter-screen, cell-based, ATP luminescence, mouse fibroblasts (AID 2010); format: functional;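 note: cells exposed to compound for about 90 hours before reading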
[11] = system: INS1; assay: beta cell apoptosis inhibitors, cytokine rescue, dose response, luminescence, retest (AID 449756); format: functional, cell-based; conditions: Rattus norvegicus;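 note: cell death triggered by IL-1 beta plus TNF-alpha plus IFN-gamma mixture; protective hits raise ATP signal compared with cytokine alone wells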
[12] = target: Voltage-dependent T-type calcium channel subunit alpha-1H (Homo sapiens, UniProt O95180); format: functional;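 note: channel activity triggered by adding a high calcium stimulation buffer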
[13] = mammalian cell cytotoxicity, dose response, cytotoxicity control, plate reader, cherry-pick samples (AID 504397); format: functional, cell-based
[14] = system: Streptococcus sp. 'group A'; assay: growth inhibition of control SK(-) GAS strain, dose response, counter-screen for streptokinase expression inhibitor project, luminescence, kanamycin, BacTiterGlo, confirmation (AID 1900); format: functional, organism-based
[15] = target: T2, Streptokinase A (Streptococcus pyogenes serotype M1, UniProt P10520); assay: S. pyogenes streptokinase expression inhibitors, potency, dose response, plasminogen activation absorbance, OD405 (AID 1914); format: functional, Streptococcus pyogenes M1 GAS;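 note: secreted streptokinase activity via plasminogen activation per viability signal from cell pellet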
T2 sequence (P10520 whole entry): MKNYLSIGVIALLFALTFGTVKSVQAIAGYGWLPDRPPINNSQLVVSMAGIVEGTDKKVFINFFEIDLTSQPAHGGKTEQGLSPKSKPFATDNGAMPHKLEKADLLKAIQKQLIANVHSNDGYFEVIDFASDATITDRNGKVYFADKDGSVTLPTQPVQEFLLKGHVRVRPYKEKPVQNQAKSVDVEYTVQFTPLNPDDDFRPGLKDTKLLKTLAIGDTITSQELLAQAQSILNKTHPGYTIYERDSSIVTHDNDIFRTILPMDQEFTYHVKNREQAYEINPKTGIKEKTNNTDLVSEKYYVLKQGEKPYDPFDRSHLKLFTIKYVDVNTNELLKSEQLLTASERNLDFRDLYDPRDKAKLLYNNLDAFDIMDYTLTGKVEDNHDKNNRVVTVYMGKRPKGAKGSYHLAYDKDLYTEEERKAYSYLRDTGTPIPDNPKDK

[16] = microbe, parasite or virus in culture; format: functional; conditions: Mycobacterium tuberculosis
[17] = system: Streptococcus; assay: Group A Streptococcus viability loss, dose response, counter-screen for streptokinase expression inhibitor project, luminescence, BacTiterGlo (AID 1915); format: functional, organism-based;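 note: potency for reduction of bacterial viability or growth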
[18] = target: Neurotensin receptor type 1 (Homo sapiens, UniProt P30989); format: functional;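 note: Image-based confirmatory dose-response assay measuring agonist activity at NTR1; NTR1-expressing U2OS osteosarcoma cells imaged for beta-arrestin GFP spot formation; agonist potency where compounds increase beta-arrestin recruitment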
[19] = Shn3 3'UTR reporter inhibitors, dose response, cell-based, Clone20 osteoblasts, firefly luciferase, cherry-picked (AID 624132); format: functional;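 note: firefly luciferase luminescence from reporter carrying the Shn3 3'UTR in osteoblasts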
[20] = HepG2 cell cytotoxicity, dose response, cytotoxicity control for Shn3 inhibitor project, CellTiter-Glo, cherry-picked (AID 624134); format: functional, cell-based
[21] = control 3'UTR Renilla luciferase suppression, dose response, counter-screen for Shn3 inhibitor project, cell-based, Clone20-Shn3RL, cherry-picked (AID 624133); format: functional
[22] = THP-1 cell cytotoxicity, dose response, cytotoxicity control for Vif-APOBEC3G degradation inhibitor project, THP-1 cells (AID 1117359); format: functional; conditions: Human immunodeficiency virus 1, THP-1

Chain of Trypsin (P00761 whole entry): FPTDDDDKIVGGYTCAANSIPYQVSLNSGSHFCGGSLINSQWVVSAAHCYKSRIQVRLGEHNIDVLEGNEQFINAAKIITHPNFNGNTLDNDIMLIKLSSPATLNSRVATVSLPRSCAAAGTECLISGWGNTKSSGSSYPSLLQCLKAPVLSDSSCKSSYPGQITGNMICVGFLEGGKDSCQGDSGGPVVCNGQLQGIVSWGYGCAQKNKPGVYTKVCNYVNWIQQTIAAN
Chain of Alkaline phosphatase, placental type (P05187 whole entry): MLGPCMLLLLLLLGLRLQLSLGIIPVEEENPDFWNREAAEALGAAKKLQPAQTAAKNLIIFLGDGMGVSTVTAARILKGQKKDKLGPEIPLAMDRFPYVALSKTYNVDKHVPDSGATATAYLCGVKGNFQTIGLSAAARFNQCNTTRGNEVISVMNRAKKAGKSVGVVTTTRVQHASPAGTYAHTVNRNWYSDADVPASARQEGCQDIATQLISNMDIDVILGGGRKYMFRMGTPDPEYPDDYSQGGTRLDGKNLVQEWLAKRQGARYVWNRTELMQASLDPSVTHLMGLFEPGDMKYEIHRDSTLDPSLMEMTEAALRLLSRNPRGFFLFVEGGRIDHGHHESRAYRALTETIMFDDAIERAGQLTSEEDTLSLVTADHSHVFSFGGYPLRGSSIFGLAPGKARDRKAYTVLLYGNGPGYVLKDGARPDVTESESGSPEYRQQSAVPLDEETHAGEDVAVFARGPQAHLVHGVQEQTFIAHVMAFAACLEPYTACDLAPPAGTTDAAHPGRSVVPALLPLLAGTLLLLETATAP
Chain of CAAX prenyl protease 2 (Q03530 whole entry): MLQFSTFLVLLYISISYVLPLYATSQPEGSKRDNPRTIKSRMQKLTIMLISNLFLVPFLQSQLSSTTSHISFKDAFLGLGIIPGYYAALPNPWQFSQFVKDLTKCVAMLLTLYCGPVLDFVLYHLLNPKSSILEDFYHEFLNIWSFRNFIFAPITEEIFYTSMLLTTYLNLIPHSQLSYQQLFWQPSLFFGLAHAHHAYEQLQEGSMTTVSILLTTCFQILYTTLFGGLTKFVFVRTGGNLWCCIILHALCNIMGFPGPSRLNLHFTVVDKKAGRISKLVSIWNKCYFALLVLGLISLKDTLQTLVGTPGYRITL
Chain of Eukaryotic translation initiation factor 4E (P63073 whole entry): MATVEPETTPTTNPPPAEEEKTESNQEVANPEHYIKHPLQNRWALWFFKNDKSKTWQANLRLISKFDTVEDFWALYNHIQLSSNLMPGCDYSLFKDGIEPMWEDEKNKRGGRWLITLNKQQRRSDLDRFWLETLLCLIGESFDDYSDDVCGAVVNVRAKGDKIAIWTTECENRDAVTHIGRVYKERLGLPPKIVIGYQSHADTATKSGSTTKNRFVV
Chain of Neurotensin receptor type 1 (P30989 whole entry): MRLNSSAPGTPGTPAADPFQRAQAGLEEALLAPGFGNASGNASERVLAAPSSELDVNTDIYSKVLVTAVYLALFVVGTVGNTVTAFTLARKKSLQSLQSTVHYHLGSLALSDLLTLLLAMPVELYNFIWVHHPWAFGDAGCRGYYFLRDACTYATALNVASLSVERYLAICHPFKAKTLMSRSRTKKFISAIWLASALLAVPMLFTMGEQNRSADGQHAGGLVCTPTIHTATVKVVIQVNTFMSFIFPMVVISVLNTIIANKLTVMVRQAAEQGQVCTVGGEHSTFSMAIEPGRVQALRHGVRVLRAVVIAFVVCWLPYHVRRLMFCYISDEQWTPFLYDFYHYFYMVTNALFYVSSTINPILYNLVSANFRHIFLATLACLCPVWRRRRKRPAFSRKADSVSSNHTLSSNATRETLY
Chain of Glyceraldehyde-3-phosphate dehydrogenase (P04406 whole entry): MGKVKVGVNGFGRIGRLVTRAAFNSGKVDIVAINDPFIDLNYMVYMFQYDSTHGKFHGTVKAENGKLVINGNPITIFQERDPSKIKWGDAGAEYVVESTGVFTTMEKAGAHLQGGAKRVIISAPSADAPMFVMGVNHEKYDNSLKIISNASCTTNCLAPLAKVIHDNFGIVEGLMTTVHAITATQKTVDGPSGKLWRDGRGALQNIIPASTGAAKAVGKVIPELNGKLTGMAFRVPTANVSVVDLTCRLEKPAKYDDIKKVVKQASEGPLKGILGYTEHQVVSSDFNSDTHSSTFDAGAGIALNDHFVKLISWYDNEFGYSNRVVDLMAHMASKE
Chain of Voltage-dependent T-type calcium channel subunit alpha-1H (O95180 whole entry): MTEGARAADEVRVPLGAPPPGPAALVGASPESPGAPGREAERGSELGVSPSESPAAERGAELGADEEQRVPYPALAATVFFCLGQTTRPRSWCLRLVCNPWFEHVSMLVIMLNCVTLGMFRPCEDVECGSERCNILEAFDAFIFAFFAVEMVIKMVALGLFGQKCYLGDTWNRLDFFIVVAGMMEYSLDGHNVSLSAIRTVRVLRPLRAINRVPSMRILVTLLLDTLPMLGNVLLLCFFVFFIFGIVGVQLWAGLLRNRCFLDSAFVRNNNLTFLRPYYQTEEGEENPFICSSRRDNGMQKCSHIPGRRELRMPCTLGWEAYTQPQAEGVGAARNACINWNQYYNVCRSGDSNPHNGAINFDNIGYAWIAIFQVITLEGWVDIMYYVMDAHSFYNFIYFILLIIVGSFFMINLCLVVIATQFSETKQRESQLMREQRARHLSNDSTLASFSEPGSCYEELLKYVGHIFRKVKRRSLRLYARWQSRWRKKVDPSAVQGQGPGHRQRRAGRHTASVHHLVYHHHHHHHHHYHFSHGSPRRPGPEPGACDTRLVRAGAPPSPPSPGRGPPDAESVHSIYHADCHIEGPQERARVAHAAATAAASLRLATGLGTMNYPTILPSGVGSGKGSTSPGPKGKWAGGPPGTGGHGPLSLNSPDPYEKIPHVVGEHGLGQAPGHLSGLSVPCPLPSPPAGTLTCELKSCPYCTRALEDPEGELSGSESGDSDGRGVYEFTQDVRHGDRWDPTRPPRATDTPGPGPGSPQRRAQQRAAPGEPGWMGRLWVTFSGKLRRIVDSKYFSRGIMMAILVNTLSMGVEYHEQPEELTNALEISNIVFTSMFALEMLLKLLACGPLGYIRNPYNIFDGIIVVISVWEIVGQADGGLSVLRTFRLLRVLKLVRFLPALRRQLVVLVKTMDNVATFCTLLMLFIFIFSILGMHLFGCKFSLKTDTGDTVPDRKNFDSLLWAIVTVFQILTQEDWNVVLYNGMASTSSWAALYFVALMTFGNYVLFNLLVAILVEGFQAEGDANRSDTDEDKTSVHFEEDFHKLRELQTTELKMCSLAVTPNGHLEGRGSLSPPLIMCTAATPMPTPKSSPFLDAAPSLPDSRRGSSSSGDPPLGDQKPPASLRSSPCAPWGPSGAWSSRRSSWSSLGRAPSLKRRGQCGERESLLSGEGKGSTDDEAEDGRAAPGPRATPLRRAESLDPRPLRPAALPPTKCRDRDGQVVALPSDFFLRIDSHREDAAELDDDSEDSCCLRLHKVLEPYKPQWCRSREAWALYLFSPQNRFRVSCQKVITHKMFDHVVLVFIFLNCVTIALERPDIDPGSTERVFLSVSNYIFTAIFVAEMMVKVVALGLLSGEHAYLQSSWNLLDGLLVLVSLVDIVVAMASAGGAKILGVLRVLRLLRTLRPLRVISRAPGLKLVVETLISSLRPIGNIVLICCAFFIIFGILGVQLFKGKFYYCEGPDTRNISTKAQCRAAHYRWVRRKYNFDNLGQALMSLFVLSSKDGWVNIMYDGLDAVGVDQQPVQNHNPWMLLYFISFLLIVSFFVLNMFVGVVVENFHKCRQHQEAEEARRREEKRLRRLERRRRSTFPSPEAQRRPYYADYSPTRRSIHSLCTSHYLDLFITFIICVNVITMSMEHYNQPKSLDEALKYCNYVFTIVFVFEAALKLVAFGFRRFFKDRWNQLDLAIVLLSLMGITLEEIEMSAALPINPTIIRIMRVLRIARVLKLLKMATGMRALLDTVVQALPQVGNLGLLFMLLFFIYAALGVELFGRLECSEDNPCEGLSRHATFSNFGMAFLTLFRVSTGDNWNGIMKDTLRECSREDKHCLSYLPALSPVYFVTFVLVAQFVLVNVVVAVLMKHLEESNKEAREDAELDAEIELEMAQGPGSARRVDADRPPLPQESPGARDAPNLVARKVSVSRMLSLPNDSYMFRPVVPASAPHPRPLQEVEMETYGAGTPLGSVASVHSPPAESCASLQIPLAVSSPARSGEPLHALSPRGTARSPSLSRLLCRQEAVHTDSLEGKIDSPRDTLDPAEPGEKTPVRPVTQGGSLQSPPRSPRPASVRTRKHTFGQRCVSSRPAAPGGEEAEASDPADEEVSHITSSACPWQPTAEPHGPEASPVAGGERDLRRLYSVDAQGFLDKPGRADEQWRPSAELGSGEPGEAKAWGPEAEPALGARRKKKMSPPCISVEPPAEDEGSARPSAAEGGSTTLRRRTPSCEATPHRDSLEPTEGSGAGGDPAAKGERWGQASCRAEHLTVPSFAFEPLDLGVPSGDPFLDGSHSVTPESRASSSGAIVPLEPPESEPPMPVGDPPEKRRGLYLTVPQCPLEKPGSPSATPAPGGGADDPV

In the case of `COc1cc(CCc2nc(N)nn2-c2ccccc2)cc(OC)c1OC`, the IC50 [1] is reported as > 100 µM (not active), the IC50 [2] is reported as > 100 µM (inactive) and the IC50 [3] is reported as > 100 µM (inactive).
For `N#Cc1c(Cl)nc(Cl)c2c1CCN(Cc1ccccc1)C2`, the AC50 [4] was 7.02 µM (active) and the AC50 [5] was 22.8 µM (active).
For `Cc1ccc(NC(=O)CN2C(=O)S/C(=C/c3ccc(-c4cccc(C(=O)O)c4)o3)C2=O)cc1`, the IC50 [6] was 50 µM (inactive).
With `Cc1ccc(-c2cn3c([n+]2-c2ccccc2)CCC3)cc1` the IC50 [7] was < 0.25 µM (active), the IC50 [8] was < 0.25 µM (active) and the EC50 [9] was 0.94 µM (active). For the same compound, the EC50 [10] was > 60 µM (not active) and the AC50 [11] was 2.5 µM (active).
For `O=C(CN(C1CCCCC1)C1CCCCC1)N1CCc2ccccc2C1`, the EC50 [12] was 4.36 µM (active) and the AC50 [13] was 204 µM (active).
With `Cc1cc(C)n(-c2nc(Nc3ccccc3C(F)(F)F)nc(-n3nc(C)cc3C)n2)n1` the EC50 [14] was 5.15 µM (active), the EC50 [15] was > 150 µM (not active) and the CC50 [16] was 12.4 µM (active). The EC50 [17] was 8.12 µM (active), the EC50 [18] was 26 µM (inactive) and the AC50 [11] was 4.01 µM (active). The AC50 [19] was 5.49 µM (active), the AC50 [20] was 58.1 µM (active) and the AC50 [21] was 5.19 µM (active). For the same compound, the CC50 [22] was 3.77 µM (active).
With `Cc1ccc(-c2cc(C(F)F)n3ncc(C(=O)NN4CCCCC4)c3n2)cc1` the IC50 [7] was 2.39 µM (active) and the IC50 [8] was 6.4 µM (active).
